A word on the EC50: it is the concentration giving half of the maximal effect. Usually EC90 stands for the concentration at which the effect reaches the 90% level.

This note sets out measurements from article PMC8786932, “Bicyclic azetidines target acute and chronic stages of Toxoplasma gondii by inhibiting parasite phenylalanyl t-RNA synthetase” (Nature Communications, 2022).

Values joined by “and” are separate entries in the source; they are usually repeats but may differ in a detail not shown here. Identical values can stand only once. Like-named read-outs stand apart in the source and are kept apart here.

In data set [1] the test system is T. gondii tachyzoites (type II ME49-FLuc). The experiment in a line: Luciferase-based tachyzoite growth assay. The data set is classed as cell-based, Toxoplasma gondii. Also noted: EC50 log inhib vs normalized response: unit: µM. The method, then: All assays were carried out in a 96-well plate format containing confluent HFF monolayers to support parasite growth. To avoid edge effects, only the inner 60 wells of each plate were used. All compounds described were provided by the Broad Institute as 10 mM stocks in 100% DMSO and stored at −80 °C prior to use. Pyrimethamine (Sigma-Aldrich) was prepared as 5 mM stock in 100% DMSO and stored at −20 °C prior to use.
(§1) All statistical analyses were conducted using Prism 9 (GraphPad Software, Inc.). Dose–response inhibition curves for parasite and host cell toxicity screens (EC50 values) were generated using (Log(inhibitor) vs. normalized response—Variable slope) function. […] For multiple comparisons, two-way ANOVA analysis function using either Sidák’s multiple comparisons test or Dunnett’s multiple comparisons test was applied as indicated.

The nature of data set [2]: in vitro. Format: cell-based. As to conditions: human, Caco-2; for EC50: nuclei count, 44 h, top 20 μM; for selectivity ratio: EC50 host cell/EC50 T. gondii, read-out: Caco-2 fold selectivity. Here is the method: For the toxicity screen, compounds were tested in 96-well plates using all the wells as no edge affect was observed. Compounds were diluted to 40 μM (2x concentration in 10% DMEM, 0.4% DMSO) before step-wise, 3-fold dilution in 10% DMEM to create 10-dose series (20 μM to 0.001 μM). Host cells were plated in black, μ-Clear 96-well plates (Greiner Bio-One). We compared several lineages including HepG2 (human hepatocellular carcinoma (ATCC-HB-8065)), THP-1 (human monocytic tumor line), SH-SY5Y (human neuroblastoma (ATCC CRL-2266)), A549 (human lung carcinoma (ATCC CRM-CCL-185)) and Caco-2 (human intestinal adenocarcinoma (ATCC HTB-37)) and HFF (primary human foreskin fibroblast) obtained from the laboratory of John Boothroyd at Stanford University. Cells were maintained in culture media according to the formulations recommended by ATCC. Cells were plated at a density (ranging from of 5 × 10^3 to 2 × 10^4 cells/well (100 μL vol)) resulting in sub-confluent monolayers to allow expansion during the 2 day growth assay. THP-1 cells were treated with 10 ng/ml phorbol 12-myristate 13-acetate (PMA) for 24 h to differentiate into macrophages before compound addition. For all other cells, compounds were added at 6 h post seeding to host cells containing plates (200 μL final volume, 0.2% DMSO) and incubated in culture medium at 37 °C supplemented with 5% CO2. At 44 h post compound addition (50 h total growth time), culture media was aspirated and replaced with Live Imaging solution (ThermoFisher) supplemented with 10 μg/mL Hoeschst 33342 (Sigma) for 20 min at 37 °C. […] Alternatively, plates fixed with 4% formaldehyde for 10 min and stained with 10 μg/mL Hoeschst 33342 (Sigma) for 20 min and imaged using a Cytation 3 multi-mode imager (DAPI, 10x objective, 4 images/well) and nuclei quantified using the Gen5 imager software (v3.08). Assays were repeated with two technical replicates within each of two independent biological replicates.
as §1

Data set [3] concerns in vitro induced T. gondii ME49-FLuc bradyzoite cysts. The experiment in a line: In vitro bradyzoite growth assay, cyst size (3 d induction + 2 d treatment). The data set is classed as cell-based, Toxoplasma gondii. The following applies: for Cyst size (individual cysts): area within cyst wall, measured in microns; for effect on cyst size: at the EC90 or 3xEC90, 2 days after 3 days induction. The method, then: To monitor the effects of compounds on early bradyzoite differentiation, ME49-Fluc tachyzoites were inoculated onto HFF monolayers grown on coverslips in 24-well plates and allowed infect during a 2 h incubation in 3% DMEM (DMEM containing glutamine (10 mM), gentamycin (10 μg/mL,) and 3% FBS) at 37°C, 5% CO2. The medium was replaced with RPMI 1640 pH 8.2 and cells were cultured in ambient CO2 at 37°C for 3 days to induce bradyzoites. […] Samples were fixed and stained using biotinylated Dolichos biflorus lectin (DBL) (Vector Laboratories (#B-1035-5) […]) followed by Alexa Fluor 488 streptavidin (Thermo Fischer (#S11223) 1:1,000 dilution) and mouse mAb 8.25.8 anti-BAG1 (from Dr. Louis Wiess) (1:1,100)[56] followed by goat anti-mouse IgG conjugated to Alexa Fluor 568 (Thermo Fischer (#A-1104) 1:1,000). Samples were analyzed using a Zeiss AxioObserver Z1 equipped with Colibri LED illumination using a 40x EC Plan-Neofluar objective (N.A. 1.3) and images were captured using an ORCA-ER digital camera operated using ZEN v3.3 (Carl Zeiss). Cyst size was determined by measuring the area defined by the perimeter of the cyst wall as measured in microns.

Data set [4] relates to in vitro derived T. gondii ME49-FLuc bradyzoites. The experiment in a line: Plaque assay of bradyzoites induced in vitro for 14 days. Format: cell-based, Toxoplasma gondii. The following applies: Fig 5F, replicates. The method, then:
To monitor the effects of compounds on more mature in vitro derived bradyzoites, ME49-Fluc tachyzoites were inoculated onto HFF monolayers grown in T25[2] flasks and bradyzoites were induced for 12 days in RPMI 1640 pH 8.2 at ambient CO2 and 37°C. Cultures were then treated with compounds at EC90 or 3XEC90 for another 2 days. At the end of 14 days, monolayers were scraped and passed through a 23 g needle to liberate cysts, followed by centrifugation (400 × g, 10 min, 4 °C). Pellets were resuspended with Pearce^TM streptavidin magnetic beads (Thermo Fisher) pre-coupled with biotinylated DBL (Vector laboratories) and incubated for 1 h at 4 °C. Beads were collected and washed twice using a magnetic stand, followed by treatment with 0.25 mg/ml trypsin for 10 min to liberate bradyzoites. Released bradyzoites were collected from the supernatant and counted using a hemocytometer. Bradyzoites were inoculated onto 6-well plates confluent with HFF monolayers and cultured for 14 days, followed by ethanol fixation and staining with 0.01% crystal violet. Plaques or foci of infection were imaged using an Axiovert 100 microscope equipped with an AxioCam color camera and analyzed by ImageJ.

Where [5] appears, read: Fig 1A rank order, T. gondii growth.
The mark [6] stands for this setting: Toxoplasma gondii, ME49-FLuc, 10-point dose-response, two biological replicates, read-out: EC50, T. gondii tachyzoite growth.
Setting [7] is: Toxoplasma gondii, Table 2, read-out: T. gondii EC50.
Setting [8] is: Toxoplasma gondii, Table S1, ME49-FLuc tachyzoites, read-out: T. gondii EC50.
Setting [9] is: Toxoplasma gondii, Fig 2A Tg_Pf_Cp EC50s, read-out: EC50 T. gondii.
Where [10] appears, read: Toxoplasma gondii, from 10-dose-response curve of Fig. 1, read-out: EC90, tachyzoite growth.

For `CN(C[C@@H]1[C@H](c2ccc(C#Cc3ccccc3)cc2)[C@@H]2CN(C(=O)Nc3ccc(OC4CC4)cc3)CCCCN12)S(C)(=O)=O` [BRD2987], in data set [1] (setting [5]), the “EC50 log inhib vs normalized response” value came to 0.01849. The EC50 in data set [1] (Toxoplasma gondii, Fig S2 source data, read-out: T. gondii (EC50, Fig S2 source data)) was 18.5 nM; in data set [1] (setting [6]), 18.5 nM; in data set [1] (setting [7]), 19 nM; in data set [1] (setting [8]) it was 18 nM; in data set [2], > 20000 nM. Besides, the “Cyst size (individual cysts)” value in data set [3] (3XEC90, 2 days) is 210 and 276.2 and 29.32 and 152.5 and 78.3 and 34.32 and 25.15 and 91.33 and 112.7 and 36.9 and 64.42 and 29.43 and 70.1 and 40.53 and 119.9 and 26.89 and 53.28 and 150.6 and 151.3 and 93.74; in data set [3] (EC90, 2 days), 236.6 and 67.46 and 53.54 and 238 and 123.3 and 64.95 and 39.29 and 138.8 and 102.4 and 187.5 and 285.6 and 103.1 and 283.5 and 243.7 and 89.72 and 170.5 and 68.94 and 144.9 and 116.2 and 59.27. Also, the “effect on cyst size” value in data set [3] is “significantly diminished cyst size”. The Plaque numbers in data set [4] (3xEC90) was 0 and 5; in data set [4] (EC90), 0.
`COc1ccc(NC(=O)N2CCCCN3[C@H](CO)[C@H](c4ccc(C#Cc5ccccc5)cc4)[C@@H]3C2)cc1` [BRD3444]: in data set [1] (setting [5]), the “EC50 log inhib vs normalized response” value was 0.02885. Also, the EC50 in data set [1] (setting [9]) was 28.9 nM; in data set [1] (setting [6]), 28.9 nM; in data set [1] (setting [7]) it was 29 nM; in data set [1] (setting [8]) it was 28 nM; in data set [2], 7820 nM. Besides, the selectivity ratio in data set [2] amounted to 270. Also, the “Cyst size (individual cysts)” value is 55.84 and 108.4 and 18.78 and 55.57 and 227.1 and 49.46 and 37.83 and 273.6 and 101.6 and 179.3 and 249.8 and 34.55 and 88.71 and 51.38 and 34.99 and 140.8 and 42.55 and 30.36 and 52.48 and 90.45 in data set [3] (3XEC90, 2 days); 20.97 and 95.37 and 274.5 and 251.3 and 190.7 and 326.2 and 209.9 and 125.4 and 65.68 and 59.54 and 81.3 and 20.04 and 43.73 and 427 and 253.3 and 87.22 and 217.7 and 114.5 and 214.1 and 137.7 in data set [3] (EC90, 2 days). In addition, the “effect on cyst size” value in data set [3] is given as “significantly diminished cyst size”. In addition, the Plaque numbers in data set [4] (3xEC90) was 0; in data set [4] (EC90), 5 and 0.
Regarding `COc1ccc(NC(=O)N2CCCCN3[C@H](CN(C)C)[C@H](c4ccc(C#Cc5ccccc5)cc4)[C@@H]3C2)cc1` [BRD7929], in data set [1], the “EC50 log inhib vs normalized response” value came to 0.0226. The compound further gave a 3XEC90 in data set [1] (Fig 6A source data) of 293.00. Moreover, the EC50 in data set [1] (ME49-FLuc, 10-point dose-response, two biological replicates, listed as BR7929, read-out: EC50, T. gondii tachyzoite growth) was found to be 22.6 nM; in data set [1] (setting [6]), 23 nM; in data set [1] (setting [7]), 23 nM; in data set [1] (setting [8]), 22 nM; in data set [1] (Toxoplasma gondii, Fig 6A source data, in vitro tachyzoites, read-out: EC50), 23 nM; in data set [2], 7000 nM. The EC90 in data set [1] (Toxoplasma gondii, Fig 6A source data, in vitro tachyzoites, read-out: EC90) was determined as 98 nM; in data set [1] (setting [10]), 98 nM. In addition, the “3xEC90, tachyzoite growth” value in data set [1] (three times EC90) came out at 0.293 µM. The “Cyst size (individual cysts)” value was 70.79 and 76.24 and 90.26 and 38.16 and 85.34 and 130.5 and 42.83 and 30.86 and 19.37 and 49.32 and 117.9 and 50.48 and 21.2 and 120.5 and 75.85 and 64.97 and 70.16 and 108.7 and 69.23 and 113 in data set [3] (3XEC90, 2 days); 112.8 and 142 and 65 and 40.33 and 94.48 and 106.3 and 167.8 and 104.7 and 129.7 and 105.6 and 65.07 and 56.59 and 80.88 and 43.39 and 143.9 and 81.69 and 71.88 and 171.2 and 68.84 and 66.51 in data set [3] (EC90, 2 days). In addition, the “effect on cyst size” value in data set [3] is “significantly diminished cyst size”. Further, the Plaque numbers in data set [4] (3xEC90) and in data set [4] (EC90) was 0 throughout.
For `COc1ccc(NC(=O)N2CCCCN3[C@H](CN(C)S(C)(=O)=O)[C@H](c4ccc(C#Cc5ccccc5)cc4)[C@@H]3C2)cc1` [BRD8494], the “EC50 log inhib vs normalized response” value in data set [1] (setting [5]) worked out at 0.03476. Moreover, the EC50 is 34.8 nM in data set [1] (setting [9]); 34.8 nM in data set [1] (setting [6]); 35 nM in data set [1] (setting [7]); 34 nM in data set [1] (setting [8]); > 20000 nM in data set [2]. Moreover, the EC90 in data set [1] (setting [10]) was 95 nM. Moreover, the selectivity ratio in data set [2] amounted to 571. Also, the “Cyst size (individual cysts)” value is 46.64 and 167.1 and 52.11 and 128.7 and 180.9 and 64.9 and 103 and 36.82 and 65.28 and 41.9 and 105.7 and 87.22 and 144.1 and 114.5 and 214.1 and 103.8 and 343.4 and 159.3 and 37.35 and 133.8 in data set [3] (3XEC90, 2 days); 112 and 360 and 182.2 and 110.4 and 32.16 and 37.14 and 75.73 and 23.46 and 145.9 and 108.1 and 145.1 and 279 and 170.3 and 246.7 and 83.16 and 29.6 and 216.4 and 92.48 and 64.36 and 16.16 in data set [3] (EC90, 2 days). Besides, in data set [3], the “effect on cyst size” value is on record as “significantly diminished cyst size”. Also, the Plaque numbers in data set [4] (3xEC90) and in data set [4] (EC90) was 0 in each case.
